Results from the NIST ThermoML archive (doi:10.1021/je0302248).
± gives the expanded uncertainty stated by the source.

Conditions: Liquid

Structure (SMILES) | vapor or sublimation pressure (319.5 K) [kPa] | vapor or sublimation pressure (336.5 K) [kPa] | vapor or sublimation pressure (393.4 K) [kPa] | vapor or sublimation pressure (419.2 K) [kPa]
CCO [ethanol] | 24 ± 7.2 | 53.32 ± 16 | – | –
CCO[Si](OCC)(OCC)OCC [tetraethoxysilane] | – | – | 24 ± 7.2 | 53.32 ± 16
